For the assay, the target named is PehR (Ralstonia pseudosolanacearum, UniProt Q8XVM3). Briefly: biochemical.

Data on one compound can be found in paper PMC10535256 (ACS Omega, 2023).

SMILES strings stand for the structures. pKd: −log10 of the molar value.

PehR, sequence (Q8XVM3 1-570): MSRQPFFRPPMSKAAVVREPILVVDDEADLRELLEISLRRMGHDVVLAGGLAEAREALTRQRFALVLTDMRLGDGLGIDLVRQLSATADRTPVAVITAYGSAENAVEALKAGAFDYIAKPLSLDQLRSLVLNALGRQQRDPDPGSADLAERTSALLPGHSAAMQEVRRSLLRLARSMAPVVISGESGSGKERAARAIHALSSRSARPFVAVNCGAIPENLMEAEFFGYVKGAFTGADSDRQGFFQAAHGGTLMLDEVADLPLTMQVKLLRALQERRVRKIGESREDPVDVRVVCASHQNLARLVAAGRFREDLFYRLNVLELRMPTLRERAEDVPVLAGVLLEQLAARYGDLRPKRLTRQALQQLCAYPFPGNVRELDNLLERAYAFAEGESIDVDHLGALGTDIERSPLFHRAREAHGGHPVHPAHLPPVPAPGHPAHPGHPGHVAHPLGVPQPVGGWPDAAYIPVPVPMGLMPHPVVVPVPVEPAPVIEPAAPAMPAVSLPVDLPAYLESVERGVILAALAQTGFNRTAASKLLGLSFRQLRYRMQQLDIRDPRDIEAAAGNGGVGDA

`Nc1ncnc2c1ncn2[C@@H]1O[C@H](COP(=O)(O)OP(=O)(O)OP(=O)(O)O)[C@H]2OC3(O[C@H]21)C([N+](=O)[O-])=CC(=[N+]([O-])O)C=C3[N+](=O)[O-]` (stereo partly shown) [TNP-ATP] had a pKd of 3.97.

In general, pKd refers to the negative decadic logarithm of the Kd, by convention in mol/L.
